ChEMBL document CHEMBL5550173, “Design, synthesis and biological evaluation of indoline-maleimide conjugates as potential antitumor agents for the treatment of colorectal cancer” (Bioorg Med Chem, 2024)
Active and inactive are the calls of the source. The calls are words filed in the database; no cut-off is given here.

Legend:
RKO [1] = experiment: Cytotoxicity against human RKO cells at 5 uM incubated for 72 hrs by MTS assay; assay type: functional
HCT-116 [2] = experiment: Inhibition of cell migration in human HCT-116 cells at 2.5 to 10 uM measured upto 48 hrs by scratch wound healing assay; assay type: functional, cell-based; conditions: dose 2.5-10 µM
HCT-116 [3] = experiment: Induction of apoptosis in human HCT-116 cells assessed as necrotic cells at 5 uM incubated for 48 hrs by Annexin V-PE and propidium iodide staining based flow cytometry analysis (reference value: 1.3%); assay type: functional
HCT-116 [4] = experiment: Antitumor activity against human HCT-116 cells xenografted in BALB/c mouse assessed as tumor growth suppression at 5 to 10 mg/kg, ip measured every 2 days; assay type: functional, organism-based; conditions: dose 5-10 mg/kg
HCT-116 [5] = experiment: Induction of cell cycle arrest in human HCT-116 cells assessed as upregulation of p53 expression at 2.5 to 10 uM incubated for 48 hrs by Western blotting analysis; assay type: functional, cell-based; conditions: dose 2.5-10 µM
HCT-116 [6] = experiment: Induction of apoptosis in human HCT-116 cells assessed as viable cells at 2.5 uM incubated for 48 hrs by Annexin V-PE and propidium iodide staining based flow cytometry analysis (reference value: 97.8%); assay type: functional; conditions: read-out: Activity
RKO [7] = experiment: Induction of cell cycle arrest in human RKO cells assessed as upregulation of p53 expression at 2.5 to 10 uM incubated for 48 hrs by Western blotting analysis; assay type: functional, cell-based; conditions: dose 2.5-10 µM
[8] = Acute toxicity in BALB/c mouse assessed as spleen lesion at 50 to 100 mg/kg, ip measured every 2 days by H and E staining based assay; assay type: organism-based; conditions: in vivo, 48 h, dose 50-100 mg/kg
HCT-116 [9] = experiment: Antitumor activity against human HCT-116 cells xenografted in BALB/c mouse assessed as reduction in tumor weight at 5 to 10 mg/kg, ip administered every 2 days; assay type: functional, organism-based; conditions: dose 5-10 mg/kg
RKO [10] = experiment: Induction of apoptosis in human RKO cells assessed as early apoptotic cells at 2.5 uM incubated for 48 hrs by Annexin V-PE and propidium iodide staining based flow cytometry analysis (reference value: 0.2%); assay type: functional
HCT-116 [11] = experiment: Effect on RB1 expression in human HCT-116 cells at 2.5 to 10 uM incubated for 48 hrs by Western blotting analysis; assay type: functional, cell-based; conditions: dose 2.5-10 µM
[12] = Toxicity in BALB/c nude mouse assessed as adverse effect at 5 to 10 mg/kg, ip administered every 2 days; assay type: organism-based; conditions: in vivo, 48 h, dose 5-10 mg/kg
[13] = Toxicity in BALB/c nude mouse assessed as changes in body weight at 5 to 10 mg/kg, ip administered every 2 days; assay type: organism-based; conditions: in vivo, 48 h, dose 5-10 mg/kg
HCT-116 [14] = experiment: Induction of apoptosis in human HCT-116 cells assessed as late apoptotic cells at 2.5 uM incubated for 48 hrs by Annexin V-PE and propidium iodide staining based flow cytometry analysis (reference value: 0.5%); assay type: functional
HCT-116 [15] = experiment: Induction of cell cycle arrest in human HCT-116 cells assessed as downregulation of p-Rb expression at 2.5 to 10 uM incubated for 48 hrs by Western blotting analysis; assay type: functional, cell-based; conditions: dose 2.5-10 µM
HCT-116 [16] = experiment: Induction of cell cycle arrest in human HCT-116 cells assessed as downregulation of CDK6 expression at 2.5 to 10 uM incubated for 48 hrs by Western blotting analysis; assay type: functional, cell-based; conditions: dose 2.5-10 µM
HCT-116 [17] = experiment: Induction of apoptosis in human HCT-116 cells assessed as early apoptotic cells at 2.5 uM incubated for 48 hrs by Annexin V-PE and propidium iodide staining based flow cytometry analysis (reference value: 0.4%); assay type: functional
HCT-116 [18] = experiment: Antitumor activity against human HCT-116 cells xenografted in BALB/c mouse assessed as reduction in Ki67 protein expression at 5 to 10 mg/kg, ip measured every 2 days by immunohistochemistry analysis; assay type: functional, organism-based; conditions: dose 5-10 mg/kg
RKO [19] = experiment: Induction of apoptosis in human RKO cells assessed as necrotic cells at 2.5 uM incubated for 48 hrs by Annexin V-PE and propidium iodide staining based flow cytometry analysis (reference value: 0.3%); assay type: functional
HCT-116 [20] = experiment: Induction of apoptosis in human HCT-116 cells assessed as early apoptotic cells at 5 uM incubated for 48 hrs by Annexin V-PE and propidium iodide staining based flow cytometry analysis (reference value: 0.4%); assay type: functional
HCT-116 [21] = experiment: Induction of apoptosis in human HCT-116 cells assessed as necrotic cells at 10 uM incubated for 48 hrs by Annexin V-PE and propidium iodide staining based flow cytometry analysis (reference value: 1.3%); assay type: functional
[22] = Acute toxicity in BALB/c mouse assessed as appearance of abnormal behavior at 50 to 100 mg/kg, ip measured every 2 days; assay type: organism-based; conditions: in vivo, 48 h, dose 50-100 mg/kg
HCT-116 [23] = experiment: Induction of cell cycle arrest in human HCT-116 cells assessed as upregulation of p21 expression at 2.5 to 10 uM incubated for 48 hrs by Western blotting analysis; assay type: functional, cell-based; conditions: dose 2.5-10 µM
RKO [24] = experiment: Induction of cell cycle arrest in human RKO cells assessed as downregulation of CDK6 expression at 2.5 to 10 uM incubated for 48 hrs by Western blotting analysis; assay type: functional, cell-based; conditions: dose 2.5-10 µM
RKO [25] = experiment: Induction of apoptosis in human RKO cells assessed as necrotic cells at 10 uM incubated for 48 hrs by Annexin V-PE and propidium iodide staining based flow cytometry analysis (reference value: 0.3%); assay type: functional
RKO [26] = experiment: Induction of apoptosis in human RKO cells assessed as viable cells at 10 uM incubated for 48 hrs by Annexin V-PE and propidium iodide staining based flow cytometry analysis (reference value: 99.2%); assay type: functional; conditions: read-out: Activity
HCT-116 [27] = experiment: Inhibition of colony formation in human HCT-116 cells incubated for 10 days with every 3 days of media replacement by crystal violet staining based assay; assay type: functional, cell-based; conditions: dose 1-4 µM, time 10.0 day
RKO [28] = experiment: Induction of apoptosis in human RKO cells assessed as early apoptotic cells at 5 uM incubated for 48 hrs by Annexin V-PE and propidium iodide staining based flow cytometry analysis (reference value: 0.2%); assay type: functional
HT-29 = experiment: Cytotoxicity against human HT-29 cells at 5 uM incubated for 72 hrs by MTS assay; assay type: functional
HCT-116 [29] = experiment: Antitumor activity against human HCT-116 cells xenografted in BALB/c mouse assessed as reduction in tumor volume at 5 to 10 mg/kg, ip measured every 2 days; assay type: functional, organism-based; conditions: dose 5-10 mg/kg
HCT-116 [30] = experiment: Induction of apoptosis in human HCT-116 cells assessed as viable cells at 10 uM incubated for 48 hrs by Annexin V-PE and propidium iodide staining based flow cytometry analysis (reference value: 97.8%); assay type: functional; conditions: read-out: Activity
RKO [31] = experiment: Effect on RB1 expression in human RKO cells at 2.5 to 10 uM incubated for 48 hrs by Western blotting analysis; assay type: functional, cell-based; conditions: dose 2.5-10 µM
HCT-116 [32] = experiment: Induction of apoptosis in human HCT-116 cells assessed as upregulation of cleaved caspase-7 expression incubated for 48 hrs by Western blotting analysis; assay type: functional, cell-based; conditions: dose 2.5-10 µM
[33] = Acute toxicity in BALB/c mouse assessed as body weight loss at 50 to 100 mg/kg, ip measured every 2 days; assay type: organism-based; conditions: in vivo, 48 h, dose 50-100 mg/kg
RKO [34] = experiment: Induction of cell cycle arrest in human RKO cells assessed as downregulation of p-Rb expression at 2.5 to 10 uM incubated for 48 hrs by Western blotting analysis; assay type: functional, cell-based; conditions: dose 2.5-10 µM
[35] = Acute toxicity in BALB/c mouse assessed as liver lesion at 50 to 100 mg/kg, ip measured every 2 days by H and E staining based assay; assay type: organism-based; conditions: in vivo, 48 h, dose 50-100 mg/kg
[36] = Cytotoxicity against human NCM460 cells incubated for 72 hrs by MTS assay; assay type: toxicity, cell-based

C=C(C)C(=O)N1CCc2cccc(C3=CC(=O)N(C)C3=O)c21
Activity (RKO [1]): 100.1% | inhibition (HCT-116 [2]): Active | Activity (HCT-116 [3]): 3.2% | Activity (HCT-116 [4]): Active | Activity (HCT-116 [5]): Active | viability at 2.5 µM (HCT-116 [6]): 96.5% | Activity (RKO [7]): Active | Activity [8]: Non-Toxic | Activity (HCT-116 [9]): Active | Activity (RKO [10]): 0.5% | Activity (HCT-116 [11]): inactive | Activity [12]: Non-Toxic | Activity [13]: Non-Toxic | Activity (HCT-116 [14]): 1% | Activity (HCT-116 [15]): Active | Activity (HCT-116 [16]): Active | Activity (HCT-116 [17]): 0.7% | Activity (HCT-116 [18]): Active | Activity (RKO [19]): 0.1% | Activity (HCT-116 [20]): 1.5% | Activity (HCT-116 [21]): 7.2% | Activity [22]: Non-Toxic | Activity (HCT-116 [23]): Active | Activity (RKO [24]): Active | Activity (RKO [25]): 0.7% | viability at 10 µM (RKO [26]): 93.4% | inhibition (HCT-116 [27]): Dose-Dependent Effect | Activity (RKO [28]): 1.5% | Activity (HT-29): 99.28% | Activity (HCT-116 [29]): Active | viability at 10 µM (HCT-116 [30]): 83.1% | Activity (RKO [31]): inactive | Activity (HCT-116 [32]): Dose-Dependent Effect | Activity [33]: Non-Toxic | Activity (RKO [34]): Active | Activity [35]: Non-Toxic | IC50 at 72 h [36]: 63.7 µM
